The target of this experiment is T1, F508delCFTR (Homo sapiens, UniProt P13569, DEL508-508).
T1 construct: expressed in transfected cells; host or cells: CFBE41o- human lung-derived epithelial cells (CFBE4lo-F508delCFTR-HRP), doxycycline-inducible
Description: Cell Surface Expression-Horse Radish Peroxidase (CSE-HRP) Assay.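 For Maximum % activity (with co-corrector): co-corrector and positive control are both the same reference corrector at 2 µM.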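 For Maximum % activity (without co-corrector): percent of the 2 µM on-plate positive control corrector response above DMSO.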 Format: cell-based. As to conditions: for Maximum % activity (with co-corrector): with co-corrector (2 μM); for Maximum % activity (with co-corrector) / Emax: maximum at any tested concentration, normalized to on-plate positive control; for Emax: without co-corrector, read-out: Maximum % activity (without co-corrector).

Where [1] appears, read: test compound without co-corrector, read-out: EC50 (without co-corrector).
Where [2] appears, read: with co-corrector (2 μM of 3-[(2R,4R)-4-({[1-(2,2-difluoro-1,3-benzodioxol-5-yl)cyclopropyl]carbonyl}amino)-7-methoxy-3,4-dihydro-2H-chromen-2-yl]benzoic acid), read-out: EC50 (with co-corrector).

Structures are written as SMILES. Where two headings read alike, the source gives them in different places. A value given as a limit tells only on which side of the number the result lay.

T1 sequence (P13569 with tags, fused parts or gaps DEL508-508): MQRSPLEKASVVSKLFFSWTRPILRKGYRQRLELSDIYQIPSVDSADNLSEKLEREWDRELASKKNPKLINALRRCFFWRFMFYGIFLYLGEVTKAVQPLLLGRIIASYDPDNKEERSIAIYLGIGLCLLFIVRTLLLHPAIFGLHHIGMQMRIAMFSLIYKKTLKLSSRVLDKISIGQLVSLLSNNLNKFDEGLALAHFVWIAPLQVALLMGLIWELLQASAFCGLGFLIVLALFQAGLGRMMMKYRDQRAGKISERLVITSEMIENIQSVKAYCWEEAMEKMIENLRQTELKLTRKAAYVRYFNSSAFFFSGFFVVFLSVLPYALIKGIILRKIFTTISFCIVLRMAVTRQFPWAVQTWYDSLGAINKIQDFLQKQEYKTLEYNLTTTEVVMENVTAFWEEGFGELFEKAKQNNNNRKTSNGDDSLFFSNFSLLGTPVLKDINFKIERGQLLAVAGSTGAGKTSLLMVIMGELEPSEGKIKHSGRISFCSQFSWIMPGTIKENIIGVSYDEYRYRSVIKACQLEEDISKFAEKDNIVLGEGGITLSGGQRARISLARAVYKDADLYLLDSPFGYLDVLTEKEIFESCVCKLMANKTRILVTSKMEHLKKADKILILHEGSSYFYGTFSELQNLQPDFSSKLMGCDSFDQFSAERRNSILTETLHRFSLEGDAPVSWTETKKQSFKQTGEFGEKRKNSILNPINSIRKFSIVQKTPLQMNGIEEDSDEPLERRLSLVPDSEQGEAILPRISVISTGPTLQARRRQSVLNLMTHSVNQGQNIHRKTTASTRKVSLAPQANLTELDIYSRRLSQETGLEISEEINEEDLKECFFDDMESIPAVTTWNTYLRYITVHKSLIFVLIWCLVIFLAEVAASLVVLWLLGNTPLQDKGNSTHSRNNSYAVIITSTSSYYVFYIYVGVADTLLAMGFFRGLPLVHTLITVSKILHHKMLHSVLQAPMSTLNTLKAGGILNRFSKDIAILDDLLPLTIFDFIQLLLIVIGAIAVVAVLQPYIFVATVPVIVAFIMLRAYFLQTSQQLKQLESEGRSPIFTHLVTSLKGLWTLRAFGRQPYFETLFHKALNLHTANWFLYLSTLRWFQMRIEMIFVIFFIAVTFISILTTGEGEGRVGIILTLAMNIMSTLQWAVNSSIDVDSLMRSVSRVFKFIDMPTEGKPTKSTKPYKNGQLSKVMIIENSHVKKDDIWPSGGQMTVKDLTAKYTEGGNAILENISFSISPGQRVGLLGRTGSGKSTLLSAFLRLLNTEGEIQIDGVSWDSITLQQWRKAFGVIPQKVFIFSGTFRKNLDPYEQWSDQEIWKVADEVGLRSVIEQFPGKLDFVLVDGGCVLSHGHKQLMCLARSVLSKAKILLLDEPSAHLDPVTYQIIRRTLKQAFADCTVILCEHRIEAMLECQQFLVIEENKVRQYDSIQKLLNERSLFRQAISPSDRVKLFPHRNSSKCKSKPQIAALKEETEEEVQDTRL

With `Cc1cc(C(F)(F)F)cc(N[C@H]2[C@H](C(C)(C)C)[C@@H](C(=O)O)N(C(=O)C3C4CCCC43)[C@H]2c2cccnc2N(C)C)n1` (stereo partly drawn) [Example I-222], the “Maximum % activity (with co-corrector)” value is “++ (≥150 and <350)”; the Emax was less than 100%. Moreover, the EC50 under setting [1] lay within 1000 to 10000 nM. In addition, the EC50 under setting [2] lay in the range of 1000 to 10000 nM.

With `COc1ccc(C23CC(C2)C3)cc1CN[C@H]1[C@H](C(C)(C)C)[C@@H](C(=O)O)N(C(=O)OC(C)C)[C@H]1c1cccnc1OC` [Example I-224], the “Maximum % activity (with co-corrector)” value was “+++ (≥350)” and the Emax lay in the range of 100 to 200%. The concentration giving a half-maximal response (EC50) under setting [1] is 1000 to 10000 nM. Moreover, the EC50 under setting [2] lay within 1000 to 10000 nM.

Turning to `COc1ccc(C(C)(C)C)cc1CN[C@H]1[C@H](C(C)(C)C)[C@@H](C(=O)O)N(C(=O)C2CCCCC2)[C@H]1c1cccnc1OC(F)F` [Example I-225], the “Maximum % activity (with co-corrector)” value was “+++ (≥350)” and the Emax was 100 to 200%. For the same molecule, the EC50 under setting [1] is 1000 to 10000 nM. Further, under setting [2], the EC50 is 1000 to 10000 nM.

For the molecule `COc1ccc(C(C)(C)C)cc1CN[C@H]1[C@H](C23CC(C2)C3)[C@@H](C(=O)O)N(C(=O)OC(C)C)[C@H]1c1ccccc1` [Example I-226], the “Maximum % activity (with co-corrector)” value is listed as “+++ (≥350)” and the Emax is more than 200%. The EC50 under setting [1] was in the range of 1000 to 10000 nM. The EC50 under setting [2] fell in the range of 1000 to 10000 nM.

Take `COc1ccc(C(C)(C)C)cc1CN[C@H]1[C@H](C(C)(C)C)[C@@H](C(=O)O)N(C(=O)OC(C)C)[C@H]1c1cccnc1OC(F)F` [Example I-227]: the “Maximum % activity (with co-corrector)” value is “+++ (≥350)” and the Emax is 100 to 200%. Also, the concentration for a half-maximal effect (EC50) under setting [1] lay within 1000 to 10000 nM. For the same molecule, the EC50 under setting [2] lay in the range of 1000 to 10000 nM.

As for `COc1ccc(C23CC(C2)C3)cc1CN[C@H]1[C@H](C(C)(C)C)[C@@H](C(=O)O)N(C(=O)C2CCCCC2)[C@H]1c1cccnc1OC(F)F` [Example I-228], the “Maximum % activity (with co-corrector)” value is given as “+++ (≥350)” and the Emax was in the range of 100 to 200%. Further, under setting [1], the EC50 fell in the range of 1000 to 10000 nM. Also, the EC50 under setting [2] was in the range of 1000 to 10000 nM.

For `COc1ccc(C(C)(C)C)cc1CN[C@H]1[C@H](C(C)(C)C)[C@@H](C(=O)O)N(C(=O)C2CCCCC2)[C@H]1c1ccccc1OC(F)F` [Example I-229], the “Maximum % activity (with co-corrector)” value is recorded as “+++ (≥350)” and the Emax was in the range of 100 to 200%. Besides, the EC50 under setting [1] is 1000 to 10000 nM. Under setting [2], the EC50 is less than 1000 nM.

On to `COc1nc(C(C)(C)C)ccc1CN[C@H]1[C@H](C(C)(C)C)[C@@H](C(=O)O)N(C(=O)C2CCCCC2)[C@H]1c1cccnc1OC` [Example I-230], for which the “Maximum % activity (with co-corrector)” value is “+++ (≥350)” and the Emax fell in the range of 100 to 200%. In addition, the EC50 under setting [1] lay in the range of 1000 to 10000 nM. Besides, the EC50 under setting [2] lay within 1000 to 10000 nM.

As for `COc1nc(C(C)(C)C)ccc1CN[C@H]1[C@H](C(C)(C)C)[C@@H](C(=O)O)N(C(=O)[C@@H]2CCCCO2)[C@H]1c1ccccc1F` [Example I-231], the “Maximum % activity (with co-corrector)” value is recorded as “+++ (≥350)” and the Emax fell in the range of 100 to 200%. Besides, under setting [1], the EC50 lay in the range of 1000 to 10000 nM. Also, under setting [2], the EC50 is 1000 to 10000 nM.

On to `COc1ccc(C(C)(C)C)cc1CN[C@H]1[C@H](C(C)(C)C)[C@@H](C(=O)O)N(C(=O)OC(C)(C)C)[C@H]1c1cccnc1OC` [Example I-232], for which the “Maximum % activity (with co-corrector)” value is on record as “+++ (≥350)” and the Emax was more than 200%. The EC50 under setting [1] was in the range of 1000 to 10000 nM. The EC50 under setting [2] was in the range of 1000 to 10000 nM.

Turning to `COc1ccc(C(C)(C)C)cc1CN[C@H]1[C@H](C(C)(C)C)[C@@H](C(=O)O)N(C(=O)[C@H](C)c2ccccc2)[C@H]1c1cccnc1N(C)C` [Example I-233], the “Maximum % activity (with co-corrector)” value was “+++ (≥350)” and the Emax was in the range of 100 to 200%. Moreover, the EC50 under setting [1] lay in the range of 1000 to 10000 nM. For the same molecule, under setting [2], the EC50 was 1000 to 10000 nM.

`COc1nc(C(C)(C)C)ccc1CN[C@H]1[C@H](C(C)(C)C)[C@@H](C(=O)O)N(C(=O)OC(C)C)[C@H]1c1cccnc1OC` [Example I-234]: the “Maximum % activity (with co-corrector)” value is “+++ (≥350)” and the Emax was in the range of 100 to 200%. Moreover, the EC50 under setting [1] is 1000 to 10000 nM. Besides, the EC50 under setting [2] was less than 1000 nM.
